Earlier results in publication PMC12308805, “Ultrahigh-Throughput Virtual Screening Strategies against PPI Targets: A Case Study of STAT Inhibitors” (Journal of Chemical Information and Modeling, 2025).
Square brackets hold non-standard residues; d marks the D form. Ends that are not written are not given here. Peptide text beside a SMILES is read from it. * marks the point of attachment. d(pY) = N[C@H](Cc1ccc(OP(=O)(O)O)cc1)C(=O)O; pY = N[C@@H](Cc1ccc(OP(=O)(O)O)cc1)C(=O)O; aIle = CC[C@@H](C)[C@H](N)C(=O)O; aThr = C[C@H](O)[C@H](N)C(=O)O; AMC = Cc1cc(=O)oc2cc(N*)ccc12; Isobutyryl = CC(C)C(=O)*; Boc = CC(C)(C)OC(=O)*; NHBn = c1ccc(CN*)cc1

Tested on: STAT3
Settings: cited from earlier work

Molecule | Type (known STAT3 active)
CC(=O)N[C@H](Cc1ccc(OP(=O)(O)O)cc1)C(=O)N[C@H](CC(C)C)C(=O)N1CCC[C@H]1C(=O)N[C@@H](CCC(N)=O)C(=O)N[C@@H](C)C(=O)N[C@H](C(N)=O)C(C)C [CHEMBL156407] (Ac-[d(pY)][dL]PQAV-NH2) | Active
CC(C)C[C@H](NC(=O)/C=C/c1ccc(OP(=O)(O)O)cc1)C(=O)N1CCC[C@H]1C(=O)N[C@@H](CC(N)=O)C(=O)NCc1ccccc1 [CHEMBL573901] | Active
CC(=O)N[C@@H](Cc1ccc(OP(=O)(O)O)cc1)C(=O)N[C@@H](CC(C)C)C(=O)N1CCC[C@H]1C(=O)N[C@H](CCC(N)=O)C(=O)N[C@@H](C(N)=O)[C@H](C)O [CHEMBL160353] (Ac-[pY]LP[dQ][dT]-NH2) | Active
CC(=O)N[C@@H](Cc1ccc(OP(=O)(O)O)cc1)C(=O)N[C@@H](CC(C)C)C(=O)N1CCC[C@H]1C(=O)N[C@@H](CCC(N)=O)C(=O)N[C@H](C(N)=O)[C@H](C)O [CHEMBL505076] (Ac-[pY]LPQ[aThr]-NH2) | Active

Same assay, conditions: sheet 6QHD_actives_decoys, retrospective screening set for STAT3 SH2 domain (PDB 6QHD); decoys are presumed inactives, not tested; ref DUD-E; cited from earlier work

Molecule | Type
CCCCN(CC)S(=O)(=O)c1cc([N+](=O)[O-])ccc1NN/C=C1/C(=O)N=C(O)NC1=O [Decoy950] | Inactive (Decoy)
OC[C@@H](O)[C@H](O[C@@H]1O[C@H](CO)[C@@H](O)[C@H](O)[C@H]1O)[C@@H](O)C(/C=N/Nc1ccccc1)=N/Nc1ccccc1 [Decoy791] | Inactive (Decoy)
COc1ccc2cc([C@H](c3nnnn3C(C)(C)C)N(CCc3ccc(OC)c(OC)c3)Cc3ccccc3)c(=O)[nH]c2c1 [Decoy776] | Inactive (Decoy)
CCOC(=O)C1=C(CN2CCN(CC(=O)Nc3cccc(F)c3)CC2)NC(=O)N[C@@H]1CC [Decoy866] | Inactive (Decoy)
COc1ccc(N/C(=N/C(=O)c2ccc(OC)c(OC)c2)NCCc2c(C)nn(C)c2C)cc1OC [Decoy827] | Inactive (Decoy)
CC[C@@H](C)[C@H](NC(=O)OC(C)(C)C)C(=O)N[C@@H](CCC(=O)O)C(=O)NCC(=O)N[C@@H](CCCNC(=N)N)C(=O)Nc1ccc2c(C)cc(=O)oc2c1 [Decoy753] (Boc-[aIle]EGR-{AMC}) | Inactive (Decoy)
CC[C@H]1OC(=O)[C@@H](C)[C@@H](O[C@@H]2C[C@@](C)(OC)[C@H](O)[C@H](C)O2)[C@@H](C)[C@@H](O[C@H]2O[C@@H](C)C[C@@H](N(C)C)[C@H]2O)[C@](C)(OC)C[C@@H](C)C(=O)[C@@H](C)[C@@H](O)[C@]1(C)O [Decoy775] | Inactive (Decoy)
COc1cc(-c2ccc(/N=N/c3ccc4c(S(=O)(=O)O)cc(S(=O)(=O)O)c(N)c4c3O)c(OC)c2)ccc1/N=N\c1c(O)ccc2ccccc12 [Decoy851] | Inactive (Decoy)
CC(=O)O[C@H]1[C@@H](O)[C@@H](O[C@@H](/C=N\c2cnc([N+](=O)[O-])s2)[C@@H](CO)O[C@H](O)/C=N/c2cnc([N+](=O)[O-])s2)O[C@@H](CO)[C@H]1O [Decoy909] | Inactive (Decoy)
COc1cc(/C=N/NC(=O)CSc2nnc(-c3cccc([N+](=O)[O-])c3)n2N)c([N+](=O)[O-])cc1O [Decoy787] | Inactive (Decoy)
O=C(O)C[C@H](NS(=O)(=O)c1cc(S(=O)(=O)N[C@H](CC(=O)O)c2ccccc2)c2cccc3c2c1NC3=O)c1ccccc1 [Decoy892] | Inactive (Decoy)
Cc1nnc(/N=C(\O)CSc2nnc(NN=C(Cc3ccccc3)Cc3ccccc3)n2N)s1 [Decoy811] | Inactive (Decoy)
WAGGDASGE [Decoy910] | Inactive (Decoy)
O=C(O)CCNS(=O)(=O)c1ccc(NCCc2ccc(C(F)(F)F)cc2)c([N+](=O)[O-])c1 [Decoy891] | Inactive (Decoy)
COc1ccc(OC[C@@H](O)Cn2c(C)c(C#N)c(=O)n(C[C@@H](O)COc3ccc(OC)cc3)c2=O)cc1 [Decoy738] | Inactive (Decoy)
Cc1nnc(CSc2nnc(NC(=O)CSc3n[nH]c(N/N=C/c4ccncc4)n3)s2)o1 [Decoy801] | Inactive (Decoy)

Same assay, conditions: sheet 6QHD_actives_decoys; known STAT3 actives of the retrospective screening set; ref ChEMBL / literature; cited from earlier work

Molecule | Type (known STAT3 active)
CC(=O)N[C@@H](Cc1ccc(OP(=O)(O)O)cc1)C(=O)N[C@@H](CC(C)C)C(=O)N1CCC[C@H]1C(=O)N[C@@H](CCC(N)=O)C(=O)NCc1ccccc1 [CHEMBL194855] (Ac-[pY]LPQ-NHBn) | Active
NC(=O)CC[C@H](NC(=O)[C@@H]1Cc2cccc3c2N1C(=O)[C@@H](NC(=O)/C=C/c1ccc(OP(=O)(O)O)cc1)C=C3)C(=O)NCc1ccccc1 [CHEMBL508912] | Active
NC(=O)CC[C@H](NC(=O)[C@@H]1Cc2cccc3c2N1C(=O)[C@@H](NC(=O)/C=C/c1ccc(OP(=O)(O)O)cc1)CC3)C(N)=O [CHEMBL449511] | Active

Same assay, conditions: sheet 6QHD_actives_decoys; retrospective screening set for STAT3 SH2 domain (PDB 6QHD); […]; ref DUD-E; cited from earlier work

Molecule | Type
Cc1ccc(S(=O)(=O)NCCCCNS(=O)(=O)c2ccc(C)c([N+](=O)[O-])c2)cc1[N+](=O)[O-] [Decoy360] | Inactive (Decoy)
O=C(Nc1ccc([N+](=O)[O-])cc1[N+](=O)[O-])[C@@](F)(OC(F)(F)[C@@](F)(OC(F)(F)C(F)(F)C(F)(F)F)C(F)(F)F)C(F)(F)F [Decoy658] | Inactive (Decoy)

Same assay, conditions: sheet 6QHD_actives_decoys; retrospective screening set for STAT3 SH2 domain (PDB 6QHD); decoys generated with DUD-E and presumed inactive, not tested; ref DUD-E; cited from earlier work

Molecule | Type
CC[C@H]1OC(=O)[C@H](C)[C@@H](O[C@@H]2C[C@](C)(OC)[C@H](O)[C@H](C)O2)[C@H](C)[C@H](O[C@H]2O[C@@H](C)C[C@@H](N(C)C)[C@H]2O)[C@](C)(O)C[C@@H](C)/C(=N\OCOCCOC)[C@H](C)[C@@H](O)[C@]1(C)O [Decoy582] | Inactive (Decoy)
COc1ccccc1NS(=O)(=O)c1cccc(C(=O)NNC(=O)CCn2c(C)csc2=O)c1 [Decoy725] | Inactive (Decoy)
O=C(NCCCN1CCN(CCCNC(=O)c2cc3ccccc3oc2=O)CC1)c1cc2ccccc2oc1=O [Decoy526] | Inactive (Decoy)
O=c1ccn([C@@H]2O[C@@H](CO[P@@](=O)(O)O[P@@](=O)(O)OP(=O)(O)O)[C@@H](O)[C@@H]2O)c(=O)[nH]1 [Decoy511] | Inactive (Decoy)
COCCN1C(=O)c2cc(C(=O)Nc3ccc(OC)c(OC)c3)ccc2[C@H]1Nc1ccc(OC)c(OC)c1 [Decoy447] | Inactive (Decoy)
Nc1nc(OCc2cc(Br)cs2)c2ncn(CCCCCCCCO[C@@H]3O[C@@H](CO)[C@@H](O)[C@@H](O)[C@H]3O)c2n1 [Decoy330] | Inactive (Decoy)
Cc1ccc(S(=O)(=O)CNC(=O)[C@H](c2ccc([N+](=O)[O-])cc2)N(Cc2ccco2)C(=O)CO)cc1 [Decoy577] | Inactive (Decoy)
Cc1ccc(Nc2cc(C)nc3cc(C(F)(F)F)ccc23)c(Br)c1 [Decoy563] | Inactive (Decoy)
Nn1c(N/N=C/c2c(O)ccc3ccccc23)nnc1SCCC(=O)Nc1ccc2c(c1)C(=O)NC2=O [Decoy439] | Inactive (Decoy)
C[C@@H]1O[C@@H](O[C@H]2[C@H](O[C@@H]3CC[C@@H]4C(=CC[C@@H]5[C@@]4(C)C(=O)C[C@]4(C)[C@H]([C@@]6(C)O[C@H](C(C)(C)O)CC6=O)[C@H](O)C[C@@]54C)C3(C)C)O[C@H](CO)[C@@H](O)[C@@H]2O)[C@H](O)[C@H](O)[C@H]1O [Decoy472] | Inactive (Decoy)
NS(=O)(=O)c1ccc(NC(=O)CSc2ccc(NC(=O)c3cccc([N+](=O)[O-])c3)cc2)cc1 [Decoy391] | Inactive (Decoy)
CC(C)(CC(=O)O)CC(=O)N1Cc2nc[nH]c2C[C@H]1c1nc(-c2ccc(F)c(Cl)c2)no1 [Decoy417] | Inactive (Decoy)
CCn1nc(C)c(CCN(C)c2ncc(C(=O)O)cc2NS(=O)(=O)c2ccc(C(C)=O)cc2)c1C [Decoy465] | Inactive (Decoy)
COc1ccc(CCNc2ccc3nnc(CCNS(=O)(=O)c4ccc(C)cc4)n3n2)cc1OC [Decoy586] | Inactive (Decoy)
O=S(=O)(O)c1cc(S(=O)(=O)O)c2c(/N=N/c3ccc([C@H](c4ccc(/N=N/c5ccc(O)cc5)cc4)C4CCCCC4)cc3)c(O)ccc2c1 [Decoy555] | Inactive (Decoy)
CNC(=O)[C@H](CC(C)C)NC(=O)[C@H](Cc1c[nH]cn1)NC(=O)[C@@H](C)NC(=O)[C@@H](NC(=O)[C@H](C)NC(=O)[C@H](Cc1c[nH]c2ccccc12)NC(=O)[C@H](Cc1cnc[nH]1)NC(=O)C(C)C)C(C)C [Decoy626] (Isobutyryl-HWAV[dA]HL-NHMe) | Inactive (Decoy)
CC[C@H](C)[C@H](NC(=O)CNC(=O)CCc1c(C)c2cc3c(C)c(C)oc3c(C)c2oc1=O)C(=O)NCCCCCC(=O)O [Decoy720] | Inactive (Decoy)
CC[C@H](c1nnnn1C[C@H]1CCCO1)N(Cc1ccc(C)cc1)Cc1cc2cc(OC)c(OC)cc2[nH]c1=O [Decoy698] | Inactive (Decoy)
CCOC(=O)c1c(NC(=O)CSc2n[nH]c(N/N=C/c3ccc(F)cc3)n2)sc2c1CCCC2 [Decoy437] | Inactive (Decoy)
CCCCCN(C(=O)Cn1c(=O)n(CC)c(=O)c2ccccc21)c1c(N)n(CCCC)c(=O)[nH]c1=O [Decoy603] | Inactive (Decoy)
[H]/N=C1/[C@@H](C)[C@@H](O)[C@@](C)(O)[C@@H](CC)OC(=O)[C@H](C)[C@H](O[C@@H]2C[C@@](C)(OC)[C@H](O)[C@H](C)O2)[C@@H](C)[C@H](O[C@H]2O[C@@H](C)C[C@@H](N(C)C)[C@H]2O)[C@@](C)(O)C[C@@H]1C [Decoy389] | Inactive (Decoy)
Cc1cc(NS(=O)(=O)c2ccc(N/N=C(/C#N)C(=O)Nc3ccc(S(N)(=O)=O)cc3)cc2)no1 [Decoy483] | Inactive (Decoy)
NC(=O)CN(CC(N)=O)c1ccc(F)cc1OCCOc1cc(F)ccc1N(CC(N)=O)CC(N)=O [Decoy400] | Inactive (Decoy)
CC(=O)O[C@@H]1[C@@H](O)[C@@H](O[C@@H](C/N=C/c2c(O)cc(O)c3ccccc23)[C@@H](CO)O[C@H](O)C/N=C/c2c(O)cc(O)c3ccccc23)O[C@@H](CO)[C@H]1O [Decoy475] | Inactive (Decoy)
CCN[C@H](c1cc(Br)ccc1Cl)c1cc(Br)ccc1Br [Decoy479] | Inactive (Decoy)
COc1cc(NC(=O)COC(=O)c2cc(OC)c(OC)cc2NC(=O)c2ccco2)cc(OC)c1 [Decoy388] | Inactive (Decoy)
